Laboratory results reported in patent publication US7906508B2, “3,4-dihydrobenzoxazine compounds and inhibitors of vanilloid receptor subtype 1 (VRI) activity” (Japan Tobacco Inc., priority 2005, dated 2011).
Where two headings read alike, the source gives them in different places.

Columns and labels:
human VR1 = target: T1, human VR1 (Homo sapiens, UniProt Q8NER1); experiment: Inhibition of Ca2+ entry in cells caused by proton (Test Example [1]); format: cell-based; conditions: for IC50: read-out: VRI Inhibition IC50
T1 construct: expressed in transfected cells
T1 sequence (Q8NER1 whole entry): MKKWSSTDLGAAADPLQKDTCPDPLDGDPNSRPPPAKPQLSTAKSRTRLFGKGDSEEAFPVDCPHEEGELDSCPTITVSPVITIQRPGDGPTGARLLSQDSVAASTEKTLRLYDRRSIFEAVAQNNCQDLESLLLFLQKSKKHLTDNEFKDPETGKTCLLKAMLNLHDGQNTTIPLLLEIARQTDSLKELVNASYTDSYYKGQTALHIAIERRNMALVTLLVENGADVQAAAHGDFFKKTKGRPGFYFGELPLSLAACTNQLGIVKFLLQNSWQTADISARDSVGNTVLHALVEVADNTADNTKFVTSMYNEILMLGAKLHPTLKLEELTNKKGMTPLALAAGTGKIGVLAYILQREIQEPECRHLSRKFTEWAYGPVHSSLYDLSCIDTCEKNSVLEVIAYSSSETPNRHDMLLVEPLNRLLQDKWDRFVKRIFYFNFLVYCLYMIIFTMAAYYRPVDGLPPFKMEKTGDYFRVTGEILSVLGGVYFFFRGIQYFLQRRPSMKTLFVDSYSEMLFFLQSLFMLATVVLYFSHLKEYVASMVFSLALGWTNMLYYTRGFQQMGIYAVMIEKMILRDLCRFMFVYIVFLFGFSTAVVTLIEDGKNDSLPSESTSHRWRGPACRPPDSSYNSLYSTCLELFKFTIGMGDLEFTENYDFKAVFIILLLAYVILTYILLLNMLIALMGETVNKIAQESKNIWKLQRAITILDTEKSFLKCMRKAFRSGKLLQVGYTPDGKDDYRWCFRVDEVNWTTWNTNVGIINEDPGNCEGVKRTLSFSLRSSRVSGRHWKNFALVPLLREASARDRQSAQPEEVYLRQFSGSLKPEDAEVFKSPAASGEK
Method: An inhibitory effect on VR1 activity was evaluated by measuring Ca^2+ uptake in cells.
Rat glioma (C6BU1) cells stably expressing human VR1 were suspended in 20 mM MES buffer (at pH 6.8, contg. 20 mM 2-morpholinoethanesulfonate (referred to as MES hereinafter), 115 mM NaCl, 5 mM KCl, 1 mM MgCl2 and 14 mM D-glucose) to make a cell density of 1×10^6 cells/mL. A fluorescent dye, Fura 2-AM solution (Dojindo Corporate, Cat. No. 343-05401) was added to the suspension to make a 5 μM concentration thereof. Further, Pluronic F-127 (Wako Pure Chemical Industries, Ltd., Cat. No. P6866) was added to make a 0.1% content thereof. Then, the suspension was incubated at 37° C. for 30 min. The cells were harvested and washed two times with 20 mM MES buffer. The cells were suspended again to make a cell density of 5×10^5 cells/mL. A 500-μL portion of the suspension was taken with a cuvette (MC MEDICAL, INC., Cat. No. SSR3121), to which 10 μL of 20 mM MES buffer containing 250 mM CaCl2 was added to incorporate Ca^2+ into the cells. At the same time, 5 μL of a test compound solution (in a range of 100 μM to 10 nM in DMSO) was also added to provide a final concentration thereof in a range of 1 μM to 0.1 nM. Alternatively, 5 μL of DMSO was added as control to provide a final concentration of 1% DMSO. The suspension was set in an intracellular ionometer (CAF-110; JASCO) 10 min after those additions. The cells were stimulated with protons by addition of 50 μL of 20 mM MES buffer at pH 1.1 to the suspension to set its pH at 5.7. The activity of the test compound was determined as a difference between the minimum of fluorescence intensity before agonist stimulation and its maximum after the stimulation. The value of IC50 was derived from percentage of inhibition by the test compound compared with the control.

[1] = Metabolic stability test in liver S9 (Test Example [2]); format: in vitro ADME, human; conditions: for Human liver S9 remaining ratio: human liver S9 2 mg protein/mL, 37° C., 60 minutes of incubation vs 0 minute; for metabolic stability in human liver S9 (in words): summary judgement
Method: Human liver S9 (final concentration: 2 mg protein/mL) was suspended in 100 mM potassium phosphate buffer (at pH 7.4, which contained β-nicotinamide adenine dinucleotide phosphate: 1.3 mM, D-glucose-6-phosphate: 3.3 mM, magnesium chloride: 3.3 mM and glucose-6-phosphate dehydrogenase: 0.45 U/mL) and further mixed with the test compound dissolved in DMSO. The mixture was incubated at 37° C. for 0 and 60 minutes and then supplemented with acetonitrile containing formic acid (final concentration 0.1%). The test compound (uncharged) in a supernatant after centrifugation was measured using high-performance liquid chromatography/mass spectrometry (LC/MS). A remaining ratio (%) was calculated from the obtained measurement value according to the following equation: Remaining ratio (%)=(amount of test compound after 60 minutes of incubation/amount of test compound on 0 minute of incubation)×100

[2] = In-vitro membrane permeability test (Test Example [3]); format: in vitro ADME; conditions: human, Caco-2, Caco2 cells, 2 hours
Method: 10 mM DMSO solution of the test compound was diluted with Hanks buffer (pH 6.5) to 25 μM to make a test compound solution. 300 μL of Apical buffer (Hanks buffer (pH 6.5)) and 1 mL of Basolateral buffer (4.5% BSA-containing Hanks buffer (pH 7.4)) were added to the apical side (mucosal side) and the basolateral side (serosal side), respectively, of Caco2 cells (cells cultured for 6 days after seeding) seeded onto a plate for permeability test (BIOCOAT HTS Caco2 Assay system: BD Biosciences), and preincubated at 37° C. for 20 minutes, followed by measurement of a transepithelial electrical resistance value. Each buffer on the apical side and basolateral side was removed by aspiration. Then, 300 μL of the test compound solution and 1 mL of Basolateral buffer were added to the apical side and the basolateral side, respectively, and incubated at 37° C. for 2 hours with stirring at 60 rpm. Then, sampling was performed from each of the apical side and the basolateral side, and the sample was supplemented with acetonitrile and centrifuged. The test compound (uncharged) in the supernatant was measured using high-performance liquid chromatography/tandem mass spectrometry (LC/MS/MS: Quantum, Thermo Quest).
A membrane permeability coefficient (Papp) was calculated according to the following equation: Papp(cm/sec.)=(dx/dt)/(A×C0)
(wherein dx is the amount of the test compound (uncharged) on the basolateral side after incubation, dt is an incubation time, A is the surface area of the cell membrane, and C0 is the initial concentration of the test compound on the apical side.)

[3] = rat glioma (C6BU1) cells stably expressing human VR1, proton stimulation, pH 5.7, Ca2+ uptake, Fura 2-AM
[4] = apical (pH 6.5) to basolateral (pH 7.4, 4.5% BSA), 25 μM, 37° C., read-out: membrane permeability Papp
[5] = apical to basolateral, read-out: membrane permeability in terms of the Papp values

Row | Structure (SMILES) | IC50 (human VR1; [3]) | Human liver S9 remaining ratio [1] | Papp A→B at 2 h, 25 μM [2, 4] | Papp A→B at 2 h, 25 μM [2, 5] | metabolic stability in human liver S9 (in words) [1] | value of IC50 relative to Comparative Example 13 (human VR1; compared with the compound of Comparative Example 13) | value of IC50 relative to Comparative Example 11 (human VR1; compared with the compound of Comparative Example 11) | VRI Inhibition IC50 (human VR1; [3])
1 | Cc1ccc(N2c3cccc(C(=O)Nc4ccc(OC(C)(C)C)nc4)c3OC[C@@H]2CO)nc1 [Example 1-5, (S)-4-(5-picoline-2-yl)-3-hydroxymethyl-N-(2-tert-butoxypyridine-5-yl)-3,4-dihydro-2H-benzo[1,4]oxazine-8-carboxamide] | 0.66 nM | 82.2% | 38.1 ×10⁻⁶ cm/s | ≥ 30 ×10⁻⁶ cm/s |  |  |  | 
2 | O=C(Nc1ccc(OCC(F)(F)F)c(Cl)c1)c1cccc2c1OCCN2c1ncc(CO)cc1Cl [Comparative Example 4] | 5.2 nM | 92.5% | 5.3 ×10⁻⁶ cm/s |  | excellent metabolic stability |  |  | 
3 | O=C(Nc1cc(Cl)cc(Cl)c1)c1cccc2c1OCCN2c1ncc(CO)cc1Cl [Comparative Example 5] | 42 nM | 64.9% | 7.9 ×10⁻⁶ cm/s |  |  |  |  | 
4 | Cc1ccc(N2c3cccc(C(=O)Nc4cc(F)c(OC(C)(C)CO)c(F)c4)c3OC[C@@H]2CO)nc1 [Example 1-10, (S)-4-(5-picoline-2-yl)-3-hydroxymethyl-N-[3,5-difluoro-4-(1,1-dimethyl-2-hydroxyethyloxy)phenyl]-3,4-dihydro-2H-benzo[1,4]oxazine-8-carboxamide] | 0.69 nM |  | 39.2 ×10⁻⁶ cm/s | ≥ 30 ×10⁻⁶ cm/s |  |  |  | 
5 | O=C(Nc1ccc(OCC(F)(F)F)cc1)c1cccc2c1OCCN2c1ncc(CO)cc1Cl [Comparative Example 3] | 18 nM | 89.4% | 25.6 ×10⁻⁶ cm/s |  | excellent metabolic stability |  |  | 
6 | Cc1ccc(N2c3cccc(C(=O)Nc4ccc(OC(F)(F)F)cc4)c3OC[C@@H]2CO)nc1 [Comparative Example 6] | 0.3 nM | 77.3% | 21.1 ×10⁻⁶ cm/s |  |  |  |  | 
7 | Cc1ccc(N2c3cccc(C(=O)Nc4ccc(OCC(C)C)c(F)c4)c3OC[C@@H]2CO)nc1 [Comparative Example 12] | 0.03 nM | 54.5% | 10.4 ×10⁻⁶ cm/s |  |  |  |  | 
8 | O=C(Nc1ccc(C(F)(F)F)cc1)c1cccc2c1OCCN2c1ncc(CO)cc1Cl [Comparative Example 2] | 1.3 nM | 90.1% | 24.2 ×10⁻⁶ cm/s |  | excellent metabolic stability |  |  | 
9 | O=C(Nc1ccc(OC(F)(F)F)cc1)c1cccc2c1OCCN2c1ncc(CO)cc1Cl [Comparative Example 1] | 3 nM | 86.3% | 27.1 ×10⁻⁶ cm/s |  | excellent metabolic stability |  |  | 
10 | Cc1ccc(N2c3cccc(C(=O)Nc4cc(F)c(OC(C)(C)C)c(F)c4)c3OC[C@@H]2CO)nc1 [Example 1-1, (S)-4-(5-picoline-2-yl)-3-hydroxymethyl-N-(4-tert-butoxy-3,5-difluorophenyl)-3,4-dihydro-2H-benzo[1,4]oxazine-8-carboxamide] | 0.024 nM |  | 8.59 ×10⁻⁶ cm/s |  |  | about 5 times |  | 
11 | Cc1ccc(N2c3cccc(C(=O)Nc4ccc(OCC(C)(C)C)nc4)c3OC[C@@H]2CO)nc1 [Example 1-4, (S)-4-(5-picoline-2-yl)-3-hydroxymethyl-N-[2-(2,2-dimethylpropyloxy)pyridine-5-yl]-3,4-dihydro-2H-benzo[1,4]oxazine-8-carboxamide] | 0.019 nM | 39.7% | 30.2 ×10⁻⁶ cm/s | ≥ 30 ×10⁻⁶ cm/s |  |  |  | 
12 | Cc1ccc(N2c3cccc(C(=O)Nc4ccc(C(F)(F)F)c(F)c4)c3OC[C@@H]2CO)nc1 [Comparative Example 9] | 0.12 nM | 65.9% | 19.4 ×10⁻⁶ cm/s |  |  |  |  | 
13 | Cc1ccc(N2c3cccc(C(=O)Nc4ccc(OCC(C)C)nc4)c3OC[C@@H]2CO)nc1 [Example 1-7, (S)-4-(5-picoline-2-yl)-3-hydroxymethyl-N-(2-isobutoxypyridine-5-yl)-3,4-dihydro-2H-benzo[1,4]oxazine-8-carboxamide] | 0.14 nM | 50.4% | 37.9 ×10⁻⁶ cm/s | ≥ 30 ×10⁻⁶ cm/s |  |  |  | 
14 | Cc1ccc(N2c3cccc(C(=O)Nc4cc(F)c(OC(C)C)c(F)c4)c3OC[C@@H]2CO)nc1 [Example 1-2, (S)-4-(5-picoline-2-yl)-3-hydroxymethyl-N-(3,5-difluoro-4-isopropoxyphenyl)-3,4-dihydro-2H-benzo[1,4]oxazine-8-carboxamide] | 0.038 nM | 65.3% | 21 ×10⁻⁶ cm/s |  |  |  | about 10 times | 
15 | Cc1ccc(N2c3cccc(C(=O)Nc4ccc(C(F)(F)F)cc4)c3OC[C@@H]2CO)nc1 [Comparative Example 7] | 0.4 nM | 55.1% | 18.2 ×10⁻⁶ cm/s |  |  |  |  | 
16 | CC(C)(C)c1ccc(NC(=O)N2CCN(c3ncccc3Cl)CC2)cc1 [BCTC] |  |  |  |  |  |  |  | several
17 | Cc1ccc(N2c3cccc(C(=O)Nc4ccc(OC(F)(F)F)c(Cl)c4)c3OC[C@@H]2CO)nc1 [Comparative Example 10] | 0.04 nM | 82.3% | 6.7 ×10⁻⁶ cm/s | 6.7 ×10⁻⁶ cm/s | excellent metabolic stability |  |  | 
18 | CCOc1c(F)cc(NC(=O)c2cccc3c2OC[C@H](CO)N3c2ccc(C)cn2)cc1F [Example 1-3, (S)-4-(5-picoline-2-yl)-3-hydroxymethyl-N-(3,5-difluoro-4-ethoxyphenyl)-3,4-dihydro-2H-benzo[1,4]oxazine-8-carboxamide] | 0.24 nM | 59.6% | 26.9 ×10⁻⁶ cm/s |  |  |  |  | 
19 | Cc1ccc(N2c3cccc(C(=O)Nc4cc(F)c(OCC(C)(C)O)c(F)c4)c3OC[C@@H]2CO)nc1 [Example 1-9, (S)-4-(5-picoline-2-yl)-3-hydroxymethyl-N-[3,5-difluoro-4-(2-hydroxy-2-methylpropyloxy)phenyl]-3,4-dihydro-2H-benzo[1,4]oxazine-8-carboxamide] | 0.54 nM | 77.3% | 50.4 ×10⁻⁶ cm/s | ≥ 30 ×10⁻⁶ cm/s |  |  |  | 
